Columns and labels:
[1] = target: T1, human recombinant serotonin (5-Hydroxytryptamine) 5-HT2A receptor (Homo sapiens, UniProt P28223); experiment: Serotonin 5-HT2A radioligand binding ([3H]Ketanserin); details: for inhibition at 1 µM: compound at 1 μM, read-out: Serotonin (1 μM) 5-HT2A, percentage inhibition of ligand binding
T1 construct: expressed in transfected cells; host or cells: CHO-K1
Method: To evaluate in radioligand binding assays the activity of compounds of the invention, human recombinant serotonin (5-Hydroxytryptamine) 5-HT2A receptor expressed in Chinese hamster ovary (CHO)-K1 cells (Bonhaus, D. et al, Br. J. Pharmacol. 115:622, 1995; Saucier, C. et al, J. Neurochem. 68:1998, 1997) in a 50 mM Tris-HCl buffer, pH 7.4, was used. Compounds of the invention were incubated with 0.5 nM [^3H]Ketanserin for 60 min. at 25° C. Non-specific binding was estimated in the presence of 1 μM Mianserin. Receptor proteins were filtered and washed, the filters were then counted to determine [^3H]Ketanserin specifically bound. Compounds were screened at 1 μM or lower, using 1% DMSO as vehicle. Biochemical assay results are presented as the percent inhibition of specific binding in Table 4.

[2] = target: T2, human recombinant dopamine D2L receptor (Homo sapiens, UniProt P14416); experiment: Dopamine D2L radioligand binding ([3H]Spiperone); details: compound at 1 μM; read-out: Dopamine (1 μM) D2L, percentage inhibition of ligand binding
T2 construct: expressed in transfected cells; host or cells: CHO
T2 sequence (P14416 whole entry): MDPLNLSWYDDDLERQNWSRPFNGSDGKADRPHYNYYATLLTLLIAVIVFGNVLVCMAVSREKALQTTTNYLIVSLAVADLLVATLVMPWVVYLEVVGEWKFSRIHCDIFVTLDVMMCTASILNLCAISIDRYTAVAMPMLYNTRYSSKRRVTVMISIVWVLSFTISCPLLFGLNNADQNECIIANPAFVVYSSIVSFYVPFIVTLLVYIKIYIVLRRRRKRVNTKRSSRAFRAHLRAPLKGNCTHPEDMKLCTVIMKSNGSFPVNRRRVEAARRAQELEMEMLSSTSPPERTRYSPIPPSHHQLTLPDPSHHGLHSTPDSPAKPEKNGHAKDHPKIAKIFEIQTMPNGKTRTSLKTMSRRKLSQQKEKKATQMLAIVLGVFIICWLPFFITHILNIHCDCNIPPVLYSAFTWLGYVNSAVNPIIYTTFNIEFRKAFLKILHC
Method: To evaluate in radioligand binding assays the activity of compounds of the invention, human recombinant dopamine D2L receptor expressed in Chinese hamster ovary (CHO) cells (Grandy, D. et al, Proc. Natl. Acad. Sci. USA. 86:9762, 1989; Hayes, G. et al, Mol. Endocrinol. 6:920, 1992) in a modified Tris-HCl buffer (50 mM Tris-HCl, pH 7.4, 1.4 mM Ascorbic Acid, 0.001% BSA, 150 mM NaCl) was used. Compounds of the invention were incubated with 0.16 nM [^3H]Spiperone for 120 min. at 25° C. Non-specific binding was estimated in the presence of 10 μM Haloperidol. Receptor proteins were filtered and washed, the filters were then counted to determine [^3H]Spiperone specifically bound. Compounds were screened at 1 μM or lower, using 1% DMSO as vehicle. Biochemical assay results are presented as the percent inhibition of specific binding in Table 3.

[3] = target: T3, human recombinant serotonin (5-Hydroxytryptamine) 5-HT6 receptor (Homo sapiens, UniProt P50406); experiment: Serotonin 5-HT6 radioligand binding ([3H]LSD); details: for inhibition at 1 µM: compound at 1 μM, read-out: Serotonin (1 μM) 5-HT6, percentage inhibition of ligand binding
T3 construct: expressed in transfected cells; host or cells: HeLa
T3 sequence (P50406 whole entry): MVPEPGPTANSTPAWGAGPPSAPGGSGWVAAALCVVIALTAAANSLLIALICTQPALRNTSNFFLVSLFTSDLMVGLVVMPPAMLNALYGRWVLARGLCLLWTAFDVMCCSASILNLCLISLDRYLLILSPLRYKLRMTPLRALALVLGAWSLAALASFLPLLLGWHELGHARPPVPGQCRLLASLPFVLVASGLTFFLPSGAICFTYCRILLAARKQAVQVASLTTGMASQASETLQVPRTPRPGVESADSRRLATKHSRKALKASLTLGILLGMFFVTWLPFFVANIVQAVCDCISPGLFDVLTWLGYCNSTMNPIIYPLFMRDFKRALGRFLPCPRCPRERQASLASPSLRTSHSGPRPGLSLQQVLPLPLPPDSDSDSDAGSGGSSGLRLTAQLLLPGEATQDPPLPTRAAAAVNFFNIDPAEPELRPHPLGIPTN
Method: To evaluate in radioligand binding assays the activity of compounds of the invention, human recombinant serotonin (5-Hydroxytryptamine) 5-HT6 receptor expressed in human HeLa cells (Monsma, F. Jr. et al, Mol. Pharmacol. 43:320, 1993) in a modified Tris-HCl buffer (50 mM Tris-HCl, pH 7.4, 150 mM NaCl, 2 mM Ascorbic Acid, 0.001% BSA) was used. Compounds of the invention were incubated with 1.5 nM [3H]Lysergic acid diethylamide (LSD) for 120 min. at 37° C. Non-specific binding was estimated in the presence of 5 μM Serotonin (5-HT). Receptor proteins were filtered and washed, the filters were then counted to determine [3H]LSD specifically bound. Compounds were screened at 1 μM or lower, using 1% DMSO as vehicle. Biochemical assay results are presented as the percent inhibition of specific binding in Table 4.

[4] = target: T4, human recombinant histamine H2 receptor (Homo sapiens, UniProt P25021); experiment: Histamine H2 radioligand binding ([125I]Aminopotentidine); details: compound at 1 μM; 0.1 nM [125I]Aminopotentidine; read-out: Histamine Binding (1 μM) H2, percentage inhibition
T4 construct: expressed in transfected cells; host or cells: CHO-K1
T4 sequence (P25021 whole entry): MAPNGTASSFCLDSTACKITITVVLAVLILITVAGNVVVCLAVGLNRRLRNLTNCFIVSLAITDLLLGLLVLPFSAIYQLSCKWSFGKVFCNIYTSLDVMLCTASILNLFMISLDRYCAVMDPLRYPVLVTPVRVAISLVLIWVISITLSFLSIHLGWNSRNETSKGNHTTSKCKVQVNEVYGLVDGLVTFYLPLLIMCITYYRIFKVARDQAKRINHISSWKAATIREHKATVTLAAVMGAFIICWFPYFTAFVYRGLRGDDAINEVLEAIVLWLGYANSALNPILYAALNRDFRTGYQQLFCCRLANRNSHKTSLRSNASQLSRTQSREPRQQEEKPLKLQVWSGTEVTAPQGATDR
Method: To evaluate in radioligand binding assays the activity of compounds of the invention, human recombinant histamine H2 receptor expressed in Chinese hamster ovary (CHO) K1 cells (Ruat, M., Proc. Natl. Acad. Sci. USA. 87(5):1658, 1990) in a 50 mM Phosphate buffer, pH 7.4 was used. Compounds of the invention were incubated with 0.1 nM [^125I]Aminopotentidine for 120 min. at 25° C. Non-specific binding was estimated in the presence of 3 μM Tiotidine. Receptor proteins were filtered and washed, the filters were then counted to determine [^125I]Aminopotentidine specifically bound. Compounds were screened at 1 μM or lower, using 1% DMSO as vehicle. Biochemical assay results are presented as the percent inhibition of specific binding in Table 2.

[5] = target: T5, human recombinant histamine H1 receptor (Homo sapiens, UniProt P35367); experiment: Histamine H1 radioligand binding ([3H]Pyrilamine); details: compound at 1 μM; 1.2 nM [3H]Pyrilamine; read-out: Histamine Binding (1 μM) H1, percentage inhibition
T5 construct: expressed in transfected cells; host or cells: CHO-K1
T5 sequence (P35367 whole entry): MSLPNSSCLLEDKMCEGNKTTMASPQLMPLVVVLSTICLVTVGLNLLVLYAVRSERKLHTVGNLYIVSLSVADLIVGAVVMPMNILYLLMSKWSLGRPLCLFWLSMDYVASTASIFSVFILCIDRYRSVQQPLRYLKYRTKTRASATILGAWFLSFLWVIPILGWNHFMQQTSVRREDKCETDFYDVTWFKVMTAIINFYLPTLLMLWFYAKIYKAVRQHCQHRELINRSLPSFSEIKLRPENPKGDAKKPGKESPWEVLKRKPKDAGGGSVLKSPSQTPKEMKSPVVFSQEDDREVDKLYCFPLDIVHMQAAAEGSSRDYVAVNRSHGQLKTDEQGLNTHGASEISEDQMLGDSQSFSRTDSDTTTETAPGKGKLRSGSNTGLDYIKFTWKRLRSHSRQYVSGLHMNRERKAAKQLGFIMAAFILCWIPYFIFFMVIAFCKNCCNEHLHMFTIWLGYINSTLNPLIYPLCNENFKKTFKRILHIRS
Method: To evaluate in radioligand binding assays the activity of compounds of the invention, human recombinant histamine H1 receptor expressed in Chinese hamster ovary (CHO) K1 cells (De Backer, M. et al, Biochem. Biophys. Res. Comm. 197(3):1601, 1993) in a modified Tris-HCl buffer (50 mM Tris-HCl, pH 7.4, 2 mM MgCl2, 100 mM NaCl, 250 mM Sucrose) was used. Compounds of the invention were incubated with 1.2 nM [^3H]Pyrilamine for 180 min. at 25° C. Non-specific binding was estimated in the presence of 1 μM Pyrilamine. Receptor proteins were filtered and washed, the filters were then counted to determine [^3H]Pyrilamine specifically bound. Compounds were screened at 1 μM or lower, using 1% DMSO as vehicle. Biochemical assay results are presented as the percent inhibition of specific binding in Table 2.

[6] = target: T6, human recombinant serotonin (5-Hydroxytryptamine) 5-HT2C receptor (Homo sapiens, UniProt P28335); experiment: Serotonin 5-HT2C radioligand binding ([3H]Mesulergine); details: for inhibition at 1 µM: compound at 1 μM, read-out: Serotonin (1 μM) 5-HT2C, percentage inhibition of ligand binding
T6 construct: expressed in transfected cells; host or cells: CHO-K1
T6 sequence (P28335 33-458): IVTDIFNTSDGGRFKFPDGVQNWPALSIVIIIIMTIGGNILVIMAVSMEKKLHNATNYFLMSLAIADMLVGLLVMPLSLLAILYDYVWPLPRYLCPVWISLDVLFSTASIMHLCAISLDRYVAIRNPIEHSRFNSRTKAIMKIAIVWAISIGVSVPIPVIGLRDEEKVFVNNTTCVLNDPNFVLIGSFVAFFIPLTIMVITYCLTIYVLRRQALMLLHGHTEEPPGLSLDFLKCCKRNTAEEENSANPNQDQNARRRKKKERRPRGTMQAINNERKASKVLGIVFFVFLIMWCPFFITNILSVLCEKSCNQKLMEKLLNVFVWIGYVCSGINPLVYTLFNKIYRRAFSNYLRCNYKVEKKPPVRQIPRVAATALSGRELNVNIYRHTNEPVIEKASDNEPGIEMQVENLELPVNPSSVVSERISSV
Method: To evaluate in radioligand binding assays the activity of compounds of the invention, human recombinant serotonin (5-Hydroxytryptamine) 5-HT2C receptor expressed in Chinese hamster ovary (CHO)-K1 cells (Wolf, W. et al, J. Neurochem. 69:1449, 1997) in a modified Tris-HCl buffer (50 mM Tris-HCl, pH 7.4, 0.1% Ascorbic Acid, 10 μM Pargyline) was used. Compounds of the invention were incubated with 1 nM [^3H]Mesulergine for 60 min. at 25° C. Non-specific binding was estimated in the presence of 1 μM Mianserin. Receptor proteins were filtered and washed, the filters were then counted to determine [^3H]Mesulergine specifically bound. Compounds were screened at 1 μM or lower, using 1% DMSO as vehicle. Biochemical assay results are presented as the percent inhibition of specific binding in Table 4.

[7] = target: T7, human recombinant serotonin (5-Hydroxytryptamine) 5-HT7 receptor (Homo sapiens, UniProt P34969); experiment: Serotonin 5-HT7 radioligand binding ([3H]LSD); details: for inhibition at 1 µM: compound at 1 μM, read-out: Serotonin (1 μM) 5-HT7, percentage inhibition of ligand binding
T7 construct: expressed in transfected cells; host or cells: CHO
T7 sequence (P34969 whole entry): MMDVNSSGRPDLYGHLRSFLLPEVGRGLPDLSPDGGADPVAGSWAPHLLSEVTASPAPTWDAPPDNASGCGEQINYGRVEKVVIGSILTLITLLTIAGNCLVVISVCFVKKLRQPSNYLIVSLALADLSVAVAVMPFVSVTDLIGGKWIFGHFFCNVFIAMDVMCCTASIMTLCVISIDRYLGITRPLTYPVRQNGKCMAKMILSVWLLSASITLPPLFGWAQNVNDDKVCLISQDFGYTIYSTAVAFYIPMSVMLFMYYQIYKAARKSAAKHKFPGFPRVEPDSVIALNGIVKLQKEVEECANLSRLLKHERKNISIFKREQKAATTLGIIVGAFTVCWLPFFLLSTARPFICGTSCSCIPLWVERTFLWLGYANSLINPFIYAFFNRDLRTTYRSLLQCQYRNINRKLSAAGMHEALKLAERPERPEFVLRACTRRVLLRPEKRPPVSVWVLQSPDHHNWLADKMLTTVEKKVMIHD
Method: To evaluate in radioligand binding assays the activity of compounds of the invention, human recombinant serotonin (5-Hydroxytryptamine) 5-HT7 receptor expressed in Chinese hamster ovary (CHO) cells (Roth, B. et al, J. Pharmacol. Exp. Ther. 268:1403, 1994; Shen, Y. et al, J. Biol. Chem. 268:18200, 1993) in a modified Tris-HCl buffer (50 mM Tris-HCl, pH 7.4, 10 mM MgCl2, 0.5 mM EDTA) was used. Compounds of invention were incubated with 5.5 nM [^3H]Lysergic acid diethylamide (LSD) for 120 min. at 25° C. Non-specific binding was estimated in the presence of 10 μM Serotonin (5-HT). Receptor proteins were filtered and washed, the filters were then counted to determine [^3H]LSD specifically bound. Compounds were screened at 1 μM or lower, using 1% DMSO as vehicle. Biochemical assay results are presented as the percent inhibition of specific binding in Table 4.

[8] = Stability of product in acidic medium (note in preparation); format: physicochemical

T1 sequence (P28223 whole entry): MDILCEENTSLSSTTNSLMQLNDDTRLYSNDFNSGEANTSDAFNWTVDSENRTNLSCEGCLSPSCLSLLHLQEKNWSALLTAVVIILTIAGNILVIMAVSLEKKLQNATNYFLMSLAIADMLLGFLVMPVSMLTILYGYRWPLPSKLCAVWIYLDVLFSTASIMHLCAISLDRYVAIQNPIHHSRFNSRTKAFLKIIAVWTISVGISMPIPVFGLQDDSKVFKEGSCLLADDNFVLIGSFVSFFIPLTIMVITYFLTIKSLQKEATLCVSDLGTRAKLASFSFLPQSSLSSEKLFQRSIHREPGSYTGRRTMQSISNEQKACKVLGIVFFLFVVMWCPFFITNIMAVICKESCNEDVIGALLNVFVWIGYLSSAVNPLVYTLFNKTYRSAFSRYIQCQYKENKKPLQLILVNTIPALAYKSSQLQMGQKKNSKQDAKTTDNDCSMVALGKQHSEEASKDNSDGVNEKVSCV

| SMILES | inhibition at 1 µM [1] [%] | inhibition at 1 µM [2] [%] | inhibition at 1 µM [3] [%] | inhibition at 1 µM [4] [%] | inhibition at 1 µM [5] [%] | inhibition at 1 µM [6] [%] | inhibition at 1 µM [7] [%] | stability in acidic medium [8] | inhibition at 0.1 µM ([1]; compound at 0.1 μM, read-out: Serotonin (0.1 μM) 5-HT2A, percentage inhibition of ligand binding) [%] | inhibition at 0.1 µM ([3]; compound at 0.1 μM, read-out: Serotonin (0.1 μM) 5-HT6, percentage inhibition of ligand binding) [%] | inhibition at 0.1 µM ([6]; compound at 0.1 μM, read-out: Serotonin (0.1 μM) 5-HT2C, percentage inhibition of ligand binding) [%] | inhibition at 0.1 µM ([7]; compound at 0.1 μM, read-out: Serotonin (0.1 μM) 5-HT7, percentage inhibition of ligand binding) [%] |
| --- | --- | --- | --- | --- | --- | --- | --- | --- | --- | --- | --- | --- |
| Cc1cc2c3c(c1)c1c(n3CC(c3ccc(C)nc3)C2)CCN(C)C1 (stereo not drawn) [Compound 1] | 20 | -1 | 24 | 42 | 44 | 19 |  |  |  |  |  |  |
| Cc1cc2c3c(c1)c1c(n3CC2c2ccc(F)cc2)CCN(C)C1 (stereo not drawn) [Compound 2] | 87 | 17 | 57 | 48 | 66 | 92 | 89 |  |  |  |  |  |
| Cc1cc2c3c(c1)c1c(n3CCO2)CCN(C)C1 [Compound 4, 5,8-dimethyl-1,2,7,8,9,10-hexahydro-[1,4]oxazino[2,3,4-hi]pyrido[4,3-b]indole] | 56 | 6 | 25 | 10 | 53 | 79 | 46 |  |  |  |  |  |
| Cc1cc2c3c(c1)c1c(n3CC(c3ccc(F)cc3)=C2)CCN(C)C1 [Compound 158] |  | 99 |  |  | 27 |  |  | unstable in acidic medium | 81 | 82 | 55 | 36 |

Reference: patent US9193728B2, “Fused tetracyclic pyrido [4,3-B] indole and pyrido [3,4-B] indole derivatives and methods of use” (Medivation Technologies, Inc., priority 2010, dated 2015)
